Structures can show the parent of a compound that is named as a salt.

We go through 2 compounds from patent US7273862B2, “Aminoalkyl substituted (benzodioxan, benzofuran or benzopyran) derivatives” (Janssen Pharmaceutica N.V., priority 1999, dated 2007).

Data set [1] has as its system fundus of the stomach (gastric tone) in conscious dogs. Nature of the data set: Gastric tone measured by an electronic barostat in conscious dogs. The format is in vivo, beagle dogs. Particulars: I.D. administration, 0.63 mg/kg, 1 hour observation period, constant pressure of 6 mmHg. An excerpt:
C. Pharmacological Examples C.1. Gastric Tone Measured by an Electronic Barostat in Conscious Dogs
Gastric tone cannot be measured by manometric methods. Therefore an electronic barostat was used. This allows the study of the physiological pattern and regulation of gastric tone in conscious dogs and the influence of test-compounds on this tone.
The barostat consists of an air injection system which is connected by a double-lumen 14-French polyvinyl tube to an ultrathin flaccid polyethylene bag (maximal volume:±700 ml). Variations in gastric tone were measured by recording changes in the volume of air within an intragastric bag, maintained at a constant pressure. The barostat maintains a constant pressure (preselected) within a flaccid air-filled bag introduced into the stomach, changing the volume of air within the bag by an electronic feedback system.
Thus, the barostat measures gastric motor activity (contraction or relaxation) as changes in intragastric volume (decrease or increase resp.) at a constant intragastric pressure. […]
When during a stabilisation period of maximum 90 minutes, the gastric volume is stable during 15 minutes at a constant pressure of 6 mmHg (about 0.81 kPa), the test compound was administered subcutaneously (S.C.), or intraduodenally (I.D.). Test compounds were screened, i.e. changes in gastric volume were measured, usually at 0.63 mg/kg. […]

The melting point is the temperature of the solid-liquid transition. As to `O=C1NCCCN1CC(O)CNCC(O)C1CCc2ccccc2O1` (centres unmarked) (as salt: hydrochloride) (hydrate or solvate) [Compound 15, [S(A)]-1-[3-[[2-(3,4-dihydro-2H-1-benzopyran-2-yl)-2-hydroxyethyl]amino]-2-hydroxypropyl]tetrahydro-2(1H)-pyrimidinone monohydrochloride dihydrate], the melting point was found to be 138 °C. Regarding `O=C1NCCCN1CC(O)CNCC(O)C1CCc2ccccc2O1` (centres unmarked) [Compound 15, [S(A)]-1-[3-[[2-(3,4-dihydro-2H-1-benzopyran-2-yl)-2-hydroxyethyl]amino]-2-hydroxypropyl]tetrahydro-2(1H)-pyrimidinone monohydrochloride dihydrate], the “Maximum change in volume (mean maximal change in volume on relaxation of the fundus)” value in data set [1] came to 5 mL.
